Experimental data as given in patent US20120137390A1, “MATERIALS AND METHODS FOR REGENERATION AND TRANSFORMATION OF TREES” (ArborGen Inc., priority 2009, published 2012).

Legend:
Assay type in all cases: cell-based
[1] = test system: E. grandis clone 6075 explants; assay: Adventitious shoot regeneration from explants on regeneration medium, clone 6075
Method: (§1) Plant Materials and culture conditions. All elite clones were maintained as shoot clumps in Eucalyptus maintenance (EM) medium (Table 1) in magenta boxes or large disposable vessels and subcultured every 4-6 weeks. Shoot clumps were divided as needed and maintained as stock culture. Unless noted otherwise, all cultures were grown under shaded, cool fluorescent light with a light intensity of 30-40 gE/m^2/s with a photoperiod of 16 hours, and a temperature of 21° C.
(§2) Although leaves, petioles, internodes, floral tissues, and embryogenic tissues can be used for transformation and subsequent regeneration, leaf explants were selected because leaves are abundant. For transformation, explants of E. grandis clones 6075 and 6084 were incubated with Agrobacterium and were placed on co-culture medium, which was the same as the regeneration medium (Table 2) except with the following modifications: the addition of Agrobacterium inducer acetosyringone and the addition of plant growth regulators that are enriched in auxin. MS medium (Murashige and Skoog 1962) was used in the present co-culture medium; however, other salt media, such as Woody Plant Medium (WPM) salts (Loyd and McCown, 1980) or Lepoivre medium, may be used. Also, other Agrobacterium inducers may be used. Plant explants were co-cultured for four days under low light conditions or in the dark on the co-culture medium.
(§3) To test the ability of various cytokinins to stimulate adventitious regeneration, the effects of 4-CPPU, Zeatin, TDZ, meta-topolin, and adenine sulfate were compared. The levels of cytokinins varied from 0.025 to 10 μM. The base medium for this matrix is named H2—2.0 (or H2—2 for short), which is the primary MS-based regeneration medium (Table 2). The medium has been effective to induce shoot regeneration from many Eucalyptus species including E. grandis, E. dunnii, E. camaldulensis, E. urophylla, E. occidentalis, and E. saligna. The antibiotic timentin was added at 250 mg/L final concentration. Shoot regeneration was measured as the frequency of explants produced shoots. Explants were cultured on the regeneration medium for about 8-10 weeks before collection of final regeneration data.

[2] = test system: E. grandis clone 6084 explants; assay: Adventitious shoot regeneration from explants on regeneration medium, clone 6084
Method: as §1, §2, §3

[3] = test system: E. urophylla X grandis S-519; assay: Regeneration screening matrix, clone S-519; conditions: meta-topolin at least 2.5 μM, clone S519
Method: as §3
(§4) Combinations of meta-mopolin, 4-CPPU, and TDZ that gave the best regeneration across multiple experiments were combined with two standard regeneration media that have worked with other clones in the past to become a regeneration screening matrix for new clonal material.

[4] = test system: E. amplifolia clone EA5490; assay: Regeneration screening matrix, clone EA5490; conditions: meta-topolin at least 2.5 μM
Method: as §3, §4

[5] = lower concentrations of 4-CPPU (0.025, 0.05 μM)

## O=C(Nc1ccccc1)Nc1ccnc(Cl)c1 [4-CPPU, N-(2-Chloro-4-pyridyl)-N′-phenylurea]
[1]; 4-CPPU at 0.1 μM
  adventitious shoot formation (in words): effective
[1]; [5]
  adventitious shoot formation (in words): not effective in induce adventitious shoot formation
[2]; 4-CPPU at 0.1 μM
  adventitious shoot formation (in words): effective
[2]; [5]
  adventitious shoot formation (in words): not effective in induce adventitious shoot formation

## O=C(Nc1ccccc1)Nc1cnns1 [TDZ, 1-phenyl-3-(1,2,3-thiadiazol-5-yl)urea]
[1]; TDZ alone at 0.1 μM
  promotion of shoot regeneration (in words): not effective in promotion of shoot regeneration
[2]; TDZ alone at 0.1 μM
  promotion of shoot regeneration (in words): not effective in promotion of shoot regeneration

## Oc1cccc(CNc2ncnc3nc[nH]c23)c1 [meta-topolin, N^6-(meta-hydroxybenzyl)adenine]
[1]; meta-topolin at least 2.5 μM
  adventitious shoot formation (in words): significant increase in adventitious shoot formation
[3]
  adventitious shoot regeneration (in words): significantly higher adventitious shoot regeneration
[4]
  adventitious shoot regeneration (in words): significantly higher adventitious shoot regeneration
[2]; meta-topolin at least 2.5 μM
  adventitious shoot formation (in words): significant increase in adventitious shoot formation
